The values that follow are results of earlier work, collected in patent US9303066B2 (priority 2011, dated 2016).

Positions of bridges follow the written chain, without caps; N, C: chain ends. Residues, ends and D or L forms follow the SMILES beside them. No end group written: not given here.

The target in series [1] is T1, GC-C (Homo sapiens, UniProt P25092). The conditions noted are these: cultured GC-C-expressing cells.
For series [2] the following is noted: 37° C.
For series [3] the following is noted: in vivo, po.
Series [4] concerns the target T1, GC-C. Set-up: from tissue; host or cells: intestinal epithelium (luminal surface) in vivo. The conditions noted are these: in vivo, po.

T1 sequence (P25092 24-1073, species assumed): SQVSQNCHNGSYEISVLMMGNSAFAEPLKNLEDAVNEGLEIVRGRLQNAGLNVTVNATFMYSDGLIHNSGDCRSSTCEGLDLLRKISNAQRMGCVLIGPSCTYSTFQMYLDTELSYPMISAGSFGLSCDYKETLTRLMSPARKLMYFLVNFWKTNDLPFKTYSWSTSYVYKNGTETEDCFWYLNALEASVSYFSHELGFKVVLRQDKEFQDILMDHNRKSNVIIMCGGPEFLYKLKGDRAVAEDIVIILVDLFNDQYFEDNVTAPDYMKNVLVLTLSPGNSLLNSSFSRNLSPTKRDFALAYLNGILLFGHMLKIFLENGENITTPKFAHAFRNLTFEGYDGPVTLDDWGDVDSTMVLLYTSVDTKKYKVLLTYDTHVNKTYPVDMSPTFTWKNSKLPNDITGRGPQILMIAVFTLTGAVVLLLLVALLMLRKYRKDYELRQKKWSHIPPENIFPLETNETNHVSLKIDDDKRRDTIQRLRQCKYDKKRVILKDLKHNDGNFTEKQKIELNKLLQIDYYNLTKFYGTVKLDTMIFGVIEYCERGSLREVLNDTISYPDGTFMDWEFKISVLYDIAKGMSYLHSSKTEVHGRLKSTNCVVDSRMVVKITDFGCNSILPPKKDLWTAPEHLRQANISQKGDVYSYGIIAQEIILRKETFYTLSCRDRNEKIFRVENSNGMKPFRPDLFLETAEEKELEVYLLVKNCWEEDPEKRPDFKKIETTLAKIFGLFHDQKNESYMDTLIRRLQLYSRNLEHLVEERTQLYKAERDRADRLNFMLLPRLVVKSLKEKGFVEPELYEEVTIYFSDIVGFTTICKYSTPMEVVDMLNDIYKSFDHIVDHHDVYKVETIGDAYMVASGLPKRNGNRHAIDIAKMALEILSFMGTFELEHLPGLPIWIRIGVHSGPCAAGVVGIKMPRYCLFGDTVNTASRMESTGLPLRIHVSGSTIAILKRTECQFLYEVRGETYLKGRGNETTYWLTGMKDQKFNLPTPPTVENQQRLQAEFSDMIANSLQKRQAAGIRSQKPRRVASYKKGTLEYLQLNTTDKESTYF

Take “UgnB: B conformational stereoisomer of human uroguanylin, separated by HPLC (NDDCELCVNVACTGCL; disulfide 4-12, 7-15; also: B conformational stereoisomer (HPLC-separated); UniProt Q16661 97-112, looked up)”: the “fold less potent than UgnA” value with GC-C [1] was “more than 100 fold”.

On to “NDDCELCVNVACTGCL (cysteine pairing not given here) [human Ugn]”, for which the “half-life of each form (A and B conformation)” value in series [2] is reported as “about 2 days”.

Turning to `C[C@@H]1NC(=O)[C@@H]2CCCN2C(=O)[C@H](CC(N)=O)NC(=O)[C@@H]2CSSC[C@H](N)C(=O)N[C@H]3CSSC[C@H](NC1=O)C(=O)N[C@@H]([C@@H](C)O)C(=O)NCC(=O)N[C@H](C(=O)N[C@@H](Cc1ccc(O)cc1)C(=O)O)CSSC[C@H](NC(=O)[C@H](Cc1ccc(O)cc1)NC(=O)[C@H](CCC(=O)O)NC3=O)C(=O)N2` [Linaclotide] (H-CCEYCCNPACTGCY-OH; disulfide 1-6, 2-10, 5-13), in series [3], the levels seen systemically was “no detectable levels”. On GC-C [4], the GI transit entry is recorded as “increased GI transit”, the bloating entry is given as “reduced bloating” and the visceral pain entry is on record as “reduced visceral pain”.
